Experimental data published in publication PMC3726769 (PLoS ONE, 2013).
Like-named read-outs stand apart in the source and are kept apart here.

Legend:
[1] = test system: α2 I E318W; type: binding, human
Protocol: (§1) I domain adhesion was determined colorimetrically using a solid-phase binding assay, modified slightly from our previous studies, [16], [32] and specified below. Wells were coated using 1 μg peptide in 100 μl 0.01 M acetic acid for 1 h at 22°C on Immulon-2 HB 96-well plates (Thermo Life Sciences, Basingstoke, UK), and blocked for 1 h with 200 μl of TBS containing 50 mg/ml bovine serum albumin). Wells were washed four times with 200 μl of the adhesion buffer (TBS with 1 mg/ml bovine serum albumin) before adding 100 μl of adhesion buffer containing 10 μg/ml of recombinant GST I domains in the presence of either 2 mM MgCl2 or EDTA for 1 h at room temperature. Wells were washed five times with 200 μl of adhesion buffer containing MgCl2, before adding 100 μl of adhesion buffer containing Amersham anti-GST-HRP conjugate (RPN1236; GE Healthcare) at 1:10,000 dilution for 1 h at room temperature. After washing, colour was developed using an ImmunoPure TMB Substrate Kit (Pierce) according to the manufacturer’s instructions. Replacing Mg^2+ with EDTA abolished binding (not shown). Data for short peptide binding were compared using 2-way ANOVA to establish the overall effect of the E318W mutation, and using repeated measures 1-way ANOVA for specific comparisons (Prism 5.0 for Mac, GraphPad).

[2] = test system: wild-type α2 I domain; test: Solid-phase binding assay of GST I domain to immobilised triple-helical peptides; set-up: species or system human; conditions: 1 μg peptide coated per well; 10 μg/ml GST I domain, 2 mM MgCl2; six paired experiments in triplicate (Fig. 2A)
Protocol: as §1

[3] = target: collagen-like triple-helical peptide [GPO]2GFOGER[GPO]3; test: SEC; analytical SEC on Superdex 200 10/300 GL at 4°C, 100 mM Tris-HCl pH 7.5, 150 mM NaCl, 2 mM MgCl2; I domain 1 mg/ml with a greater than 2-fold molar excess of peptide, 30 min at 4°C before injection
[4] = test system: α2 I E318W; type: binding, human; remark: listed apart in the source
[5] = test system: α2 I E318W; test: Analytical size exclusion chromatography of I domain-collagen peptide complexes; type: binding, human
Protocol: The lyophilised triple-helical peptides (GFOGER, GMOGER, GAOGER) were dissolved in 500 μl of 1 mg/ml stock solutions of either wild-type or E318W α2 I domains. The amount of peptide was chosen so as to yield a greater than 2-fold molar excess of peptide. After incubation for 30 min at 4°C, the solutions were injected onto a Superdex 200 10/300 GL column and run at 4°C at a flow rate of 0.5 ml/min in SEC buffer.

[6] = test system: wild-type α2 I domain; test: as above; type: binding, human
Protocol: After incubation for 30 min at 4°C, the solutions were injected onto a Superdex 200 10/300 GL column and run at 4°C at a flow rate of 0.5 ml/min in SEC buffer.

[7] = target: T1, collagen-like triple-helical peptide [GPO]2GMOGER[GPO]3 (O denotes hydroxyproline; C-terminal amide); test: SEC; analytical SEC on Superdex 200 10/300 GL at 4°C, 100 mM Tris-HCl pH 7.5, 150 mM NaCl, 2 mM MgCl2; I domain 1 mg/ml with a greater than 2-fold molar excess of peptide, 30 min at 4°C before injection; conditions: both partners purified
T1 chain: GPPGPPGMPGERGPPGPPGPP

[8] = 1 μg peptide coated per well, 10 μg/ml GST I domain, 2 mM MgCl2, six paired experiments in triplicate (Fig. 2A)
[9] = solid-phase binding, shorter triple-helical peptides, A450, six paired experiments (Fig. 2A), ANOVA p<0.001
[10] = SEC, Superdex 200, 4°C, peptide in >2-fold molar excess (Fig. 3)
[11] = SEC, Superdex 200, 4°C, peptide in >2-fold molar excess, 1 mg/ml I domain, 30 min incubation at 4°C, 100 mM Tris-HCl pH 7.5, 150 mM NaCl, 2 mM MgCl2

How did the “Change in binding of α2 I E318W compared with wild-type α2 I domain” value (“Change in binding of α2 I E318W” for short) [1] turn out when GLKGEN was run?
The value was “several-fold increases”.

With GLOGER as the molecule, how does the “Binding of wild-type α2 I domain to shorter triple-helical Gxx'GEx'' peptides (A450)” value (from here on “Binding of wild-type α2 I domain”) [2] read?
The value was “bound well”.

What about the “Binding of α2 I E318W to shorter triple-helical Gxx'GEx'' peptides (A450)” value (shortened to “Binding of α2 I E318W … (A450)”) [1, 8] of the same molecule?
The value was “bound well”.

“His-tagged integrin α2 I domain E318W (for SEC and crystallisation) (from UniProt P17301 171-368) (domain or fragment)” was tested. Which stoichiometry N (I domains per triple-helical peptide) [3] did it give?
Its stoichiometry N (I domains per triple-helical peptide) is 2.

With GFOGER [positive control] as the molecule, how does the “Binding of wild-type α2 I domain” value [2] read?
Its value is “bound well”.

What about the “Binding of α2 I E318W … (A450)” value [1, 8] of the same molecule?
The value was “bound well”.

What about the “Change in affinity of E318W compared with wild-type, increasing dose of I domain” value (from here on “Change in affinity … increasing dose of I domain”) ([4]; increasing concentrations of I domain on peptide coatings, single-site binding curves, 3 replicates in a single experiment (Fig. 2B)) of the same molecule?
The value was “modest increase in affinity”.

What does the source list for GFPGER?
Binding of wild-type α2 I domain to shorter triple-helical Gxx'GEx'' peptides (A450) [2]: bound well; Binding of α2 I E318W to shorter triple-helical Gxx'GEx'' peptides (A450) [1]: bound well; Change in binding of α2 I E318W compared with wild-type α2 I domain [1, 9]: equally well

Which “Change in binding of α2 I E318W” value [1] does the source give for GQRGER here?
Its value is “several-fold increases”.

Which “Reduction in elution volume of α2 I E318W on addition of peptide” value [5, 10] does the source give for “[GPO]2GFOGER[GPO]3 [GFOGER peptide, short homotrimeric collagen-like peptide [GPO]2GFOGER[GPO]3 used for SEC and crystallisation]” here?
The value was 1.4 mL.

And the “Complex formation with α2 I E318W in solution (I domain:peptide stoichiometry)” value [5, 11]?
Its value is “appeared to form a 2:1 complex”.

What about the “Apparent mass of the α2 I E318W-peptide complex from calibration of the SEC column” value ([5]; Superdex 200, 4°C (Fig. 3), calculated mass 56.1 kDa) of the same molecule?
The value was 44 kDa.

What about the “Reduction in elution volume of wild-type α2 I domain on addition of peptide” value [6, 10] of the same molecule?
The value was 0.6 mL.

And the “Complex formation with wild-type α2 I in solution (I domain:peptide stoichiometry)” value [6, 11]?
Its value is “formed a 1:1 complex”.

What about the “Apparent mass of the wild-type α2 I-peptide complex derived from the calibration of the SEC column” value ([6]; Superdex 200, 4°C (Fig. 3)) of the same molecule?
The value was 31 kDa.

How did the “Binding of wild-type α2 I domain” value [2] turn out when GLOGEN was run?
The value was “bound well”.

And the “Binding of α2 I E318W … (A450)” value [1, 8]?
Its value is “bound well”.

With “GVOGEA [shorter triple-helical peptide with the α1β1-specific motif GVOGEA]” as the molecule, how does the “Binding of wild-type α2 I domain” value [2] read?
The value was “not recognised”.

What about the “Binding of α2 I E318W … (A450)” value [1, 8] of the same molecule?
The value was “not recognised”.

With GMOGER as the molecule, how does the “Change in binding of α2 I E318W” value [1] read?
The value was “doubling in amplitude”.

What about the “Change in binding of α2 I E318W” value [1, 9] of the same molecule?
The value was “substantial increase”.

What about the “Change in affinity … increasing dose of I domain” value [4] of the same molecule?
The value was “substantially greater increase in affinity”.

With GFOGEK as the molecule, how does the “Binding of wild-type α2 I domain” value [2] read?
The value was “bound well”.

What about the “Binding of α2 I E318W … (A450)” value [1] of the same molecule?
Its value is “bound well”.

What does the source list for GROGER?
Binding of wild-type α2 I domain to shorter triple-helical Gxx'GEx'' peptides (A450) [2]: bound well; Binding of α2 I E318W to shorter triple-helical Gxx'GEx'' peptides (A450) [1]: bound well

For GASGER, which “Change in binding of α2 I E318W” value [1] is on record?
The value was “several-fold increases”.

How did the stoichiometry N (I domain per triple-helical peptide) [3] turn out when “wild-type integrin α2 I domain used in analytical SEC (domain or fragment)” was run?
The stoichiometry N (I domain per triple-helical peptide) was 1.

For GAOGER, which “Change in affinity … increasing dose of I domain” value [4] is on record?
Its value is “substantially greater increase in affinity”.

Which results are given for GLOGEA?
Binding of wild-type α2 I domain to shorter triple-helical Gxx'GEx'' peptides (A450) [2]: bound well; Binding of α2 I E318W to shorter triple-helical Gxx'GEx'' peptides (A450) [1]: bound well

B1: His-tagged integrin α2 I domain E318W (for SEC and crystallisation) (domain or fragment, human)
chain: SLIDVVVVCDESNSIYPWDAVKNFLEKFVQGLDIGPTKTQVGLIQYANNPRVVFNLNTYKTKEEMIVATSQTSQYGGDLTNTFGAIQYARKYAYSAASGGRRSATKVMVVVTDGESHDGSMLKAVIDQCNHDNILRFGIAVLGYLNRNALDTKNLIKEIKAIASIPTERYFFNVSDWAALLEKAGTLGEQIFSIEGTV
notes: also called α2 I E318W; E318W I domain; source: E. coli Origami, purified (HisTrap FF, SEC on Superdex 75)
With B1 as the molecule, how does the “stoichiometry N” value [7] read?
The value was 1 I domain per triple-helical peptide.
